Structures are written as SMILES.

In one series the target is T1, Rev-Erb alpha (Homo sapiens, UniProt P20393).
T1 sequence (P20393 284-614 limits assumed): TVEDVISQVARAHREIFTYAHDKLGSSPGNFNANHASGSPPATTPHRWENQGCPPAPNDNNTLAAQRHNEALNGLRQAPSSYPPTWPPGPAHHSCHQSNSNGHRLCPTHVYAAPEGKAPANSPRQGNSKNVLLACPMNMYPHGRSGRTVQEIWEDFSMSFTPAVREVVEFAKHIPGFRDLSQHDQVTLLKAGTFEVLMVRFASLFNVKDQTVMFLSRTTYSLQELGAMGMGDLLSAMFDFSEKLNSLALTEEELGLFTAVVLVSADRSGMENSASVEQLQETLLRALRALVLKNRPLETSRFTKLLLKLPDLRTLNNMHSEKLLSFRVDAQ
Nature of the series: M2H (mammalian two-hybrid) cellular activation assay of Rev-Erb alpha. As to conditions: M2H assay, HEK293 cells; for EC50: Gal4-Rev-Erb alpha / VP16-NCoR, luciferase reporter. It counts as cell-based. The essentials: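 Six-point dose-response, 18 h, 37 °C, serum-free, in HEK293 cells carrying a Gal4-RE luciferase reporter with Gal4-Rev-Erb alpha or beta plus VP16-NCoR (corepressor interaction readout). EC50 and TOP activation (%) derived from luminescence across four experiments.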

`Fc1cc(Oc2ccc3nnc(Cl)n3n2)c(-c2ccccc2)cc1F` [Cpd.4-26, 6-(4,5-difluoro-biphenyl-2-yloxy)-3-chloro-[1,2,4]triazolo[4,3-b]pyridazine] gave a melting point of 125.6 °C. The compound also came in with an EC50 on Rev-Erb alpha of 100 to 1000 nM.
`Cc1ccc(Oc2ccc3nnc(Cl)n3n2)c(-c2ccccc2)c1` [Cpd.4-27, 6-(5-methyl-biphenyl-2-yloxy)-3-chloro-[1,2,4]triazolo[4,3-b]pyridazine]: the melting point is 144.5 °C. For the same compound, the EC50 on Rev-Erb alpha is < 100 nM.
`Fc1cccc(-c2ccc(F)cc2Oc2ccc3nnc(Cl)n3n2)c1` [Cpd.4-30, 6-(3′-fluoro-4-fluoro-biphenyl-2-yloxy)-3-chloro-[1,2,4]triazolo[4,3-b]pyridazine] displayed a melting point of 123.4 °C. Moreover, on Rev-Erb alpha, the EC50 was 100 to 1000 nM.
Consider `Fc1ccc(-c2ccc(F)cc2Oc2ccc3nnc(Cl)n3n2)cc1` [Cpd.4-31, 6-(4′-fluoro-4-fluoro-biphenyl-2-yloxy)-3-chloro-[1,2,4]triazolo[4,3-b]pyridazine], for which the melting point came out at 129.7 °C. At Rev-Erb alpha, this compound gave an EC50 of 100 to 1000 nM.
The matching figures for `Oc1ccc(Oc2ccc3nnc(Cl)n3n2)c(-c2ccccc2)c1` [Cpd.4-32, 6-(5-hydroxy-biphenyl-2-yloxy)-3-chloro-[1,2,4]triazolo[4,3-b]pyridazine]: 267.7 °C and 1000 to 6000 nM.
The matching figures for `FC(F)(F)c1ccc(-c2ccccc2)c(Oc2ccc3nnc(Cl)n3n2)c1` [Cpd.4-33, 6-(4-trifluoromethyl-biphenyl-2-yloxy)-3-chloro-[1,2,4]triazolo[4,3-b]pyridazine]: 138.9 °C and < 100 nM.
`COc1ccc(-c2ccc(F)cc2)c(Oc2ccc3nnc(Cl)n3n2)c1` [Cpd.4-34, 6-(4′-fluoro-4-methoxy-biphenyl-2-yloxy)-3-chloro-[1,2,4]triazolo[4,3-b]pyridazine] returned a melting point of 171.7 °C. In addition, the half-maximal effective concentration (EC50) at Rev-Erb alpha fell in the range of 100 to 1000 nM.
In the case of `Clc1ccc(Oc2ccc3nnc(Cl)n3n2)c(-c2ccccc2)c1` [Cpd.4-35, 6-(5-chloro-biphenyl-2-yloxy)-3-chloro-[1,2,4]triazolo[4,3-b]pyridazine], the melting point was determined as 166.2 °C. Besides, the EC50 at Rev-Erb alpha lay in the range of 100 to 1000 nM.
Regarding `FC(F)(F)c1ccc(-c2ccccc2)c(Oc2ccc3nnc(C(F)(F)F)n3n2)c1` [Cpd.4-38, 6-(4-trifluoromethyl-biphenyl-2-yloxy)-3-(trifluoromethyl)-[1,2,4]triazolo[4,3-b]pyridazine], the melting point turned out to be 150 °C. For the same compound, the EC50 at Rev-Erb alpha is 100 to 1000 nM.
Regarding `CN(C)Cc1ccc(-c2ccccc2)c(Oc2ccc3nnc(Cl)n3n2)c1` [Cpd.4-41, 3-chloro-6-(4-N,N-dimethylaminomethyl-biphenyl-2-yloxy)-[1,2,4]triazolo[4,3-b]pyridazine], the melting point is 141 to 144 °C. Moreover, at Rev-Erb alpha, the EC50 was 1000 to 6000 nM.
`CNc1ccc(Oc2ccc3nnc(Cl)n3n2)c(-c2ccccc2)c1` [Cpd.4-47, 3-chloro-6-(5-methylamino-biphenyl-2-yloxy)-[1,2,4]triazolo[4,3-b]pyridazine] registered a melting point of 157 to 158 °C. The EC50 on Rev-Erb alpha was < 100 nM.
For `CCCCNc1ccc(-c2ccccc2)c(Oc2ccc3nnc(Cl)n3n2)c1` [Cpd.4-50, 3-chloro-6-(4-N-butylamino-biphenyl-2-yloxy)-[1,2,4]triazolo[4,3-b]pyridazine], the melting point was 132 to 135 °C. The compound further yielded an EC50 on Rev-Erb alpha of 100 to 1000 nM.
`CC(C)CNc1ccc(-c2ccccc2)c(Oc2ccc3nnc(Cl)n3n2)c1` [Cpd.4-51, 3-chloro-6-(4-N-2-methylpropylamino-biphenyl-2-yloxy)-[1,2,4]triazolo[4,3-b]pyridazine] registered a melting point of 124 to 128 °C. This compound also displayed an EC50 on Rev-Erb alpha of 100 to 1000 nM.
As to `CCCN(CCC)c1ccc(Oc2ccc3nnc(Cl)n3n2)c(-c2ccccc2)c1` [Cpd.4-53, 3-chloro-6-(5-dipropylamino-biphenyl-2-yloxy)-[1,2,4]triazolo[4,3-b]pyridazine], the melting point fell in the range of 106 to 109 °C. Further, the concentration giving a half-maximal response (EC50) on Rev-Erb alpha lay within 100 to 1000 nM.
Turning to `CCN(CC)c1ccc(Oc2ccc3nnc(Cl)n3n2)c(-c2ccccc2)c1` [Cpd.4-55, 3-chloro-6-(5-diethylamino-biphenyl-2-yloxy)-[1,2,4]triazolo[4,3-b]pyridazine], the melting point fell in the range of 55 to 58 °C. On Rev-Erb alpha, the EC50 was < 100 nM.
Compound `CCCNc1ccc(Oc2ccc3nnc(Cl)n3n2)c(-c2ccccc2)c1` [Cpd.4-56, 3-chloro-6-(5-propylamino-biphenyl-2-yloxy)-[1,2,4]triazolo[4,3-b]pyridazine] showed a melting point of 55 to 58 °C. In addition, the EC50 at Rev-Erb alpha was 100 to 1000 nM.
For the compound `CN(Cc1ccccc1)Cc1ccc(-c2ccccc2)c(Oc2ccc3nnc(Cl)n3n2)c1` [Cpd.4-60, 3-chloro-6-(4-N-methyl-N-benzylaminomethyl-biphenyl-2-yloxy)-[1,2,4]triazolo[4,3-b]pyridazine], the melting point lay within 119 to 122 °C. Also, at Rev-Erb alpha, the EC50 was 100 to 1000 nM.
For `Clc1nnc2ccc(Oc3cc(CN4CCOCC4)ccc3-c3ccccc3)nn12` [Cpd.4-64, 3-chloro-6-(4-morpholinomethyl-biphenyl-2-yloxy)-[1,2,4]triazolo[4,3-b]pyridazine], the melting point lay within 162 to 163 °C. Moreover, at Rev-Erb alpha, the EC50 is 1000 to 6000 nM.
`CC(C)CNc1ccc(Oc2ccc3nnc(Cl)n3n2)c(-c2ccccc2)c1` [Cpd.4-67, 3-chloro-6-(5-isobutylamino-biphenyl-2-yloxy)-[1,2,4]triazolo[4,3-b]pyridazine] returned a melting point of 62 to 67 °C. Further, the EC50 on Rev-Erb alpha was < 100 nM.
In the same order, the values of `FC(F)(F)Oc1ccc(-c2ccccc2)c(Oc2ccc3nnc(Cl)n3n2)c1` [Cpd.4-68, 3-chloro-6-(4-trifluoromethyloxy-biphenyl-2-yloxy)-[1,2,4]triazolo[4,3-b]pyridazine] are 225.4 to 228.2 °C and 100 to 1000 nM.
Take `NC(=O)c1ccc(Oc2ccc3nnc(Cl)n3n2)c(-c2ccccc2)c1` [Cpd.4-70, 3-chloro-6-(5-aminocarbonyl-biphenyl-2-yloxy)-[1,2,4]triazolo[4,3-b]pyridazine]: the melting point is 196.5 to 198.4 °C. For the same compound, at Rev-Erb alpha, the EC50 is > 6000 nM. Also, on Rev-Erb alpha (relative to DMSO, at the tested dose, read-out: TOP activation), the Emax is > 130%.
For `Oc1cccc(-c2cc(F)ccc2Oc2ccc3nnc(Cl)n3n2)c1` [Cpd.4-77, 3-chloro-6-(5-fluoro-3′-hydroxy-biphenyl-2-yloxy)-[1,2,4]triazolo[4,3-b]pyridazine], the melting point was 241.3 to 244.5 °C. Besides, the concentration for a half-maximal effect (EC50) on Rev-Erb alpha lay in the range of 1000 to 6000 nM.
In the same order, the values of `FC(F)(F)c1ccc(-c2ccc(Cl)nc2)c(Oc2ccc3nnc(Cl)n3n2)c1` [Cpd.4-101, 3-chloro-6-(2-(6-chloropyridin-3-yl)-5-(trifluoromethyl)phenoxy)-[1,2,4]triazolo[4,3-b]pyridazine] are 198 to 200 °C and 100 to 1000 nM.
The matching figures for `COc1ccc(-c2cccc(C(F)(F)F)c2)c(Oc2ccc3nnc(Cl)n3n2)c1` [Cpd.4-113, 3-chloro-6-{[4-methoxy-3′-(trifluoromethyl)biphenyl-2-yl]oxy}-[1,2,4]triazolo[4,3-b]pyridazine]: 111.6 °C and 100 to 1000 nM.
The compound `Fc1ccc(Oc2ccc3nnc(Cl)n3n2)c(-c2ccc(F)c(F)c2)c1` [Cpd.4-115, 3-chloro-6-(5,3′,4′-trifluorobiphenyl-2-yloxy)-[1,2,4]triazolo[4,3-b]pyridazine] returned a melting point of 147.8 °C. The compound further displayed an EC50 on Rev-Erb alpha of 100 to 1000 nM.
`Fc1ccc(-c2cc(F)ccc2Oc2ccc3nnc(Cl)n3n2)cc1` [Cpd.4-116, 3-chloro-6-(5,4′-difluorobiphenyl-2-yloxy)-[1,2,4]triazolo[4,3-b]pyridazine] gave a melting point of 141.1 °C. The compound also yielded an EC50 on Rev-Erb alpha of 100 to 1000 nM.
Consider `Clc1ccc(-c2ccccc2Oc2ccc3nnc(Cl)n3n2)cc1` [Cpd.4-117, 3-chloro-6-(4′-chlorobiphenyl-2-yloxy)-[1,2,4]triazolo[4,3-b]pyridazine], for which the melting point is 173 °C. Further, at Rev-Erb alpha, the EC50 fell in the range of 100 to 1000 nM.
With `Fc1ccc(Oc2ccc3nnc(Cl)n3n2)c(-c2ccc(Cl)cc2)c1` [Cpd.4-118, 3-chloro-6-(4′-chloro-5-fluorobiphenyl-2-yloxy)-[1,2,4]triazolo[4,3-b]pyridazine], the melting point is 172 °C. The compound further showed an EC50 on Rev-Erb alpha of 100 to 1000 nM.
In the same order, the values of `Nc1cccc(-c2cc(F)ccc2Oc2ccc3nnc(Cl)n3n2)c1` [Cpd.4-119, 3-chloro-6-(3′-amino-5-fluorobiphenyl-2-yloxy)-[1,2,4]triazolo[4,3-b]pyridazine] are 248.2 °C and 1000 to 6000 nM.
The compound `Fc1cccc(-c2cc(F)ccc2Oc2ccc3nnc(Cl)n3n2)c1` [Cpd.4-120, 3-chloro-6-(3′,5-difluorobiphenyl-2-yloxy)-[1,2,4]triazolo[4,3-b]pyridazine] displayed a melting point of 106.2 °C. The compound further showed a concentration giving a half-maximal response (EC50) at Rev-Erb alpha of 100 to 1000 nM.
Compound `FC(F)(F)c1ccc(CN2CCOCC2)c(Oc2ccc3nnc(Cl)n3n2)c1` [Cpd.4-122, 3-chloro-6-(2-(morpholinomethyl)-5-(trifluoromethyl)phenoxy)-[1,2,4]triazolo[4,3-b]pyridazine] registered a melting point of 55 to 58 °C. The compound also registered an EC50 on Rev-Erb alpha of 1000 to 6000 nM.

Source of the values: patent US9586963B2 (GENFIT, priority 2011, dated 2017).
